Source: patent US20220347146A1, “CANCER TREATMENT” (AXELIA ONCOLOGY PTY LTD, priority 2019, published 2022)

What was measured:
EMT6.5 cells = assay: EMT6.5 orthotopic mammary tumour model, i.v. therapy; format: in vivo, mouse
Method: Balb/c mice (n=12) were implanted orthotopically with 100,000 EMT6.5 cells into the 4th inguinal mammary gland and established tumours monitored by calliper measurement. When tumours were ˜200 mm^3 the mice were randomized to either one of two therapeutic arms (n=6 per arm); 1) compound A108 (10 μg, per mouse), or 2) Vehicle (saline) control. Therapy was administered intravenously to tumour bearing mice in three doses, three days apart. All mice completed therapy and were culled 21 days after tumour implant. The primary tumours, lungs and spleens were recovered and weighed. Lungs were analysed by real time quantitative PCR (RTQ-PCR) for evaluation of metastatic burden. Body weight was measured throughout the experiment.

[1] = cited from earlier work; for IL-10 and Tregs / anti-tumour activity: subcutaneous or intraperitoneal administration (Yamazaki et al. 2011)

Row | Compound | severe weight loss (EMT6.5 cells; 10 μg per mouse i.v., three doses) | body weight on initial therapy (EMT6.5 cells; 10 μg per mouse i.v., three doses three days apart, data not shown) | reversibility of weight loss (EMT6.5 cells; following cessation of therapy) | IL-10 and Tregs [1] | anti-tumour activity [1] | myeloid derived suppressor cells ([1]; intravenous administration (Maruyama et al. 2015))
1 | CCCCCCCCCCCCCCCC(=O)OC[C@H](CSC[C@H](N)C(=O)N[C@@H](CO)C(=O)NCCOCCOCCOCCOCCOCCOCCOCCOCCOCCOCCOCCOCCOCCOCCOCCOCCOCCOCCOCCOCCOCCOCCOCCOCCOCCOCCOCCOCCC(=O)NCC(N)=O)OC(=O)CCCCCCCCCCCCCCC [A108] | No severe weight loss was observed | induced an acute weight loss | reversible following cessation of therapy | – | – | –
2 | MALP2 | – | – | – | induce IL-10 and Tregs | no anti-tumour activity | –
3 | Pam2CysSK4 | – | – | – | induce IL-10 and Tregs | no anti-tumour activity | promotes myeloid derived suppressor cells
